Measurements taken from US20200003756A1, “METHOD FOR OBSERVING SEBACEOUS GLAND” (MANDOM CORPORATION, priority 2017, published 2020).

Tested on: sebaceous-gland-structure A
Assay: Classification of the state of lipid droplets in cells of the outermost layer of the sebaceous gland after suspension culture (Example 1)
Assay type: cell-based
Parameters: key to State of lipid droplet in cell contained in outermost layer of sebaceous gland FIG. 6(A) / State of lipid droplet in cell contained in outermost layer of sebaceous gland FIG. 6(B) / State of lipid droplet in cell contained in outermost layer of sebaceous gland FIG. 6(C) / State of lipid droplet in cell contained in outermost layer of sebaceous gland FIG. 6(D) / State of lipid droplet in cell contained in outermost layer of sebaceous gland FIG. 6(E) / State of lipid droplet in cell contained in outermost layer of sebaceous gland FIG. 6(F) / State of lipid droplet in cell contained in outermost layer of sebaceous gland FIG. 6(G): “◯ (open circle)” shows that a given state shown in FIG. 6 was observed; —: “-” shows that the given state shown in FIG. 6 was not observed
Details: for State of lipid droplet in cell contained in outermost layer of sebaceous gland FIG. 6(A): (A) No lipid droplet is found in the cell; for State of lipid droplet in cell contained in outermost layer of sebaceous gland FIG. 6(B): (B) A few lipid droplets are found in the cell; for State of lipid droplet in cell contained in outermost layer of sebaceous gland FIG. 6(C): (C) There is a space of lipid droplets in the cell; for State of lipid droplet in cell contained in outermost layer of sebaceous gland FIG. 6(D): (D) Lipid droplets start erosion of the nucleus; for State of lipid droplet in cell contained in outermost layer of sebaceous gland FIG. 6(E): (E) Lipid droplets start being connected to each other; for State of lipid droplet in cell contained in outermost layer of sebaceous gland FIG. 6(F): (F) The cell is fully occupied by lipid droplets; for State of lipid droplet in cell contained in outermost layer of sebaceous gland FIG. 6(G): (G) The cell is disappeared
From the text: Under a stereoscopic microscope, a subcutaneous tissue was removed from a skin tissue by using scissors. Next, collagenous fibers were removed from the dermis in the skin tissue by using scissors and tweezers after removing the subcutaneous tissue, to obtain a sebaceous-gland-structure in which a sebaceous gland was exposed (hereinafter referred to as “sebaceous-gland-structure A”). […] In the sebaceous-gland-structure A, a sebaceous gland was exposed.
The sebaceous-gland-structure A obtained in Preparation Example 6 was immersed in a 4% by mass PFA-containing PBS solution at 4° C. for 30 minutes to fix the sebaceous-gland-structure A, thereby giving a fixed sample. The resulting fixed sample was washed by incubating the sample in a 2% by mass BSA-containing PBSTT solution at 4° C. for 1 hour. Washing was carried out three times.
The fixed sample after the washing was incubated in the primary antibody-containing solution obtained in Preparation Example 2 at 4° C. for 24 hours. The fixed sample after the incubation was washed by incubating the fixed sample in a […] by mass BSA-containing PBSTT solution at 4° C. for 1 hour. Washing was carried out three times.
The fixed sample after the washing was incubated in the staining reagent A obtained in Preparation Example 3 at 4° C. for 12 hours, to stain the sebaceous gland basal cell and the nucleus present in the outermost layer of the sebaceous gland. The stained fixed sample was washed by incubating the sample in a 2% by mass BSA-containing PBSTT solution at 4° C. for 1 hour. Washing was carried out three times.
The fixed sample after the washing was incubated in the staining reagent B obtained in Preparation Example 4 at room temperature (25° C.) for 30 minutes, to stain the sebum contained in the sebaceous-gland-structure A. The stained fixed sample was washed by incubating the sample in a 2% by mass BSA-containing PBSTT solution at 4° C. for 1 hour. Washing was carried out three times.
The fixed sample after the washing was subjected to incubation in a 20% by mass glycerol-containing PBS solution at 4° C. for 1 hour, incubation in a 50% by mass glycerol-containing PBS solution at 4° C. for 1 hour, and incubation in a 80% by mass glycerol-containing PBS solution at 4° C. for 1 hour, to substitute the moisture contained in the fixed sample with glycerol.
An appropriate amount (for example, 50 μL) of an 80 by mass aqueous glycerol solution was added to a region surrounded by the spaced contained in the spacer-attached coverslip obtained in Preparation Example 5. Next, the glycerol-substituted sebaceous-gland-structure A was placed on the region surrounded by the spacer contained in the spacer-attached coverslip so that the side of the sebaceous gland was directed downwards. Thereafter, the region surrounded by the spacer contained in the spacer-attached coverslip was covered with a round-shaped coverslip (diameter: 12 mm), to obtain an observation sample.
Linoleic acid was added to the mixed medium obtained in Preparation Example 1 (hereinafter also referred to as “test sample A”) so that the concentration of linoleic acid was 1×10^−4 M, to obtain a test sample B. In addition, linoleic acid was added to the mixed medium obtained in Preparation Example 1 so that the concentration of linoleic acid was 1×10^−3 M, to obtain a test sample C.
One milliliter of the test sample A was added to each well of a 24-well plate. Next, the sebaceous-gland-structure A obtained in Preparation Example 6 was cultured in a suspended state in the test sample A contained in each well of the 24-well plate in the presence of 5% by volume carbon dioxide at 37° C. for 24 hours, to contact the sebaceous-gland-structure A with the test sample A (Experiment number 1). In addition, the sebaceous-gland-structure A was contacted with the test sample A in the same manner as in Experiment number 1 except that in Experiment number 1, 48-hour culture was carried out in place of 24-hour culture (Experiment number 2). […]

[1] = linoleic acid 1 × 10^−3 M, culture 24 h (Experiment 5)
[2] = linoleic acid 1 × 10^−3 M, culture 48 h (Experiment 6)
[3] = linoleic acid 1 × 10^−4 M, culture 24 h (Experiment 3)
[4] = linoleic acid 1 × 10^−4 M, culture 48 h (Experiment 4)

In the case of CCCCC/C=C\C/C=C\CCCCCCCC(=O)O [linoleic acid, Linoleic acid], the “State of lipid droplet in cell contained in outermost layer of sebaceous gland FIG. 6(A)” value (shortened to “State … of sebaceous gland FIG. 6(A)”) [1] is reported as “◯”, the “State of lipid droplet in cell contained in outermost layer of sebaceous gland FIG. 6(B)” value (“State … of sebaceous gland FIG. 6(B)” for short) [1] is reported as “◯” and the “State of lipid droplet in cell contained in outermost layer of sebaceous gland FIG. 6(C)” value (“State … of sebaceous gland FIG. 6(C)” below) [1] is reported as “◯”. The “State of lipid droplet in cell contained in outermost layer of sebaceous gland FIG. 6(D)” value (shortened to “State … of sebaceous gland FIG. 6(D)”) [1] was “◯”, the “State of lipid droplet in cell contained in outermost layer of sebaceous gland FIG. 6(E)” value (“State … of sebaceous gland FIG. 6(E)” for short) [1] was “◯” and the “State of lipid droplet in cell contained in outermost layer of sebaceous gland FIG. 6(F)” value (“State … of sebaceous gland FIG. 6(F)” below) [1] was “—”. For the same compound, the “State of lipid droplet in cell contained in outermost layer of sebaceous gland FIG. 6(G)” value (shortened to “State … of sebaceous gland FIG. 6(G)”) [1] was “◯”, the “State … of sebaceous gland FIG. 6(A)” value [2] was “◯” and the “State … of sebaceous gland FIG. 6(B)” value [2] was “◯”. For the same compound, the “State … of sebaceous gland FIG. 6(C)” value [2] was “◯”, the “State … of sebaceous gland FIG. 6(D)” value [2] was “◯” and the “State … of sebaceous gland FIG. 6(E)” value [2] was “◯”. The “State … of sebaceous gland FIG. 6(F)” value [2] was “◯”, the “State … of sebaceous gland FIG. 6(G)” value [2] was “◯” and the “number of cells progressing sebum production (tendency from Table 2)” value (linoleic acid 1×10^−4 M and 1×10^−3 M, culture 24 h and 48 h) was “the higher the linoleic acid concentration in the test sample is and the longer the culture time is, the larger the number of cells progressing sebum production is”. For the same compound, the “State … of sebaceous gland FIG. 6(A)” value [3] was “◯”, the “State … of sebaceous gland FIG. 6(B)” value [3] was “◯” and the “State … of sebaceous gland FIG. 6(C)” value [3] was “—”. The “State … of sebaceous gland FIG. 6(D)” value [3] was “—”, the “State … of sebaceous gland FIG. 6(E)” value [3] was “—” and the “State … of sebaceous gland FIG. 6(F)” value [3] was “—”. For the same compound, the “State … of sebaceous gland FIG. 6(G)” value [3] was “—”, the “State … of sebaceous gland FIG. 6(A)” value [4] was “◯” and the “State … of sebaceous gland FIG. 6(B)” value [4] was “◯”. For the same compound, the “State … of sebaceous gland FIG. 6(C)” value [4] was “◯”, the “State … of sebaceous gland FIG. 6(D)” value [4] was “—” and the “State … of sebaceous gland FIG. 6(E)” value [4] was “—”. The “State … of sebaceous gland FIG. 6(F)” value [4] was “—” and the “State … of sebaceous gland FIG. 6(G)” value [4] was “—”.
